Test results reported in patent US20100197584A1, “USE OF CURCUMIN TO BLOCK BRAIN TUMOR FORMATION IN MICE” (Research Foundations of the City University of- New York, priority 2007, published 2010).

Tests used:
Erk = experiment: Western blot of B16F10 cells, Erk; assay type: cell-based, mouse; conditions: 50 μM (FIG. 9)
Experimental: B16F10 cells were cultured in 10-cm plates and then treated in duplicate with carrier or curcumin (50 μM). Following treatment for appropriate time periods, the cells were washed with PBS, lysed in RIPA buffer (PBS containing 1% Nonidet P40, 0.5% sodium deoxycholate, 0.1% SDS, 0.5 mM Na3VO4 plus freshly added PMSF and protease inhibitor cocktail; Boeringer-Roche), and then 20 μg of lysate protein (per lane) were analyzed by SDS-10% PAGE and Western blot analysis. Antibody concentrations used were: anti-phospho-NF-κB (1:1000) (Santa Cruz Biotechnology, Santa Cruz, Calif.), anti-phospho-Akt (1:5000) (Cell Signaling, CA), anti-cyclin D1 (1:1000) (Cell Signaling, CA), anti-BclXL (1:500) (Santa Cruz Biotechnology), anti-VEGF (1:500) (Santa Cruz Biotechnology), and anti-β-actin (1:1000) (Sigma, St. Louis, Mo.).

[1] = test system: HOG (human oligodendroglioma) cells; experiment: Cell viability assay using MTT, HOG; assay type: cell-based; conditions: 25 μM and 50 μM, 48 h or 96 h, versus control cells (FIG. 6e)
Experimental: Cells. B16F10 (mouse melanoma), GL261 (mouse glioma), HOG (human oligodendroglioma), A549 (human lung cancer), and N18 (mouse neuroblastoma) cells were cultured separately in DMEM containing 10% (v/v) fetal bovine serum and 1% (v/v) penicillin-streptomycin (PS) and allowed to grow to 40% confluence in a 96-well plate.
Curcumin Treatment. Two hours before drug treatment, the medium in each well was replaced with 200 μl Neurobasal medium supplemented with 2% (v/v) B27 and 1% (v/v) PS (Drug-treatment Medium). A stock solution (40 mM) of curcumin was prepared in sterile dimethyl sulfoxide (DMSO) (Example 1). Through serial dilution of each stock solution in Drug-treatment Medium, the following concentrations were obtained: 20 μM and 50 μM (for caspase 3/7 assays) or 25 μM and 50 μM (for MTT assays). […] Additionally, the background absorbance was determined from parallel wells containing only the Drug-treatment Medium plus a particular concentration of the drug (no cells).
Cell Viability Assay Using MTT (3-(4,5-Dimethylthiazolyl-2)-2,5-Diphenyltetrazolium Bromide). […] Absorbance was measured at 570 nm using a 96-well multi scanner auto-reader with the extraction buffer used as blank. For curcumin samples, the absorbance obtained from the corresponding curcumin plus medium samples was subtracted.

B16F10 cells = experiment: Intracranial injection of curcumin on brain tumor cells (B16F10); assay type: in vivo, mice; conditions: 5 μl of 3 mM curcumin via cannula every other day
Source text: Each mouse was fitted with a stainless steel guide cannula (Plastic Ones, System C313G, Roanoke, Va., USA) to administer curcumin directly to the brain. Cannulas were implanted into the right frontal cortex at the same coordinates as used earlier for intracerebral injection. The guide cannula was fixed to the skull with dental cement. A removable stylet plugged the guide cannula except during the time of drug injection. B16F10 cells (103) were delivered into mice in two sets on the first day. Starting from the third day, 5 μl of curcumin (3 mM) in PBS containing 15% DMSO were infused through the cannula of one set of mice (three), whereas the other set of mice (three) received 5 μl of PBS containing 15% DMSO (carrier). Considering that the brain volume of an adult mouse is about 400 μl, dispersion of this solution would give a final concentration of 37.5 μM curcumin and 0.187% DMSO in the brain. This infusion was started on the third day and then performed every other day, until day 19. The brains of the treated mice were removed and soaked (fixed) in 4% paraformaldehyde.

breast tumor cell lines = conditions: several breast tumor cell lines (Mehta et al. 1997); cited from earlier work
[2] = Permeability of the blood-brain barrier to curcumin (HPLC of brain after tail vein injection); assay type: in vivo, mouse
Experimental: A curcumin solution (200 μl of 667 μM curcumin in PBS containing 3% DMSO) was injected through the tail vein of each mouse, the mice were sacrificed after 15 min, 30 min, and 2 hours, and brain regions (forebrain, hippocampus, and hypothalamus) as well as blood were collected for analysis. Each tissue fraction was diluted into 300 μl of water, homogenized, and then diluted with 700 μl of acetonitrile. Proteins and other insoluble substances were separated by centrifugation at 8000 rpm in a table-top Eppendorf microcentrifuge, and the supernatants were transferred to fresh tubes and then evaporated by blowing in nitrogen gas. The blood (100 μl) was diluted with 40 μl EDTA (500 mM) and 160 μl of water. This mixture was diluted with 700 μl of actonitrile, vortexed, protein and debris separated by centrifugation and then the supernatant evaporated under nitrogen. The residues obtained were dissolved in 50 μl of acetonitrile:water (70:30) and 30 μl of this solution injected for HPLC analysis on a C18 reverse-phase column. A standard 0.1 mM solution of curcumin dissolved in acetonitrile:water (70:30) was injected for comparison. The mobile phase was a 30-70% gradient of acetonitrile in water containing 0.1% trifluoroacetic acid (TFA). Curcumin eluted as a closely spaced triplet with the strongest peak eluting at 12.8 min.

COc1cc(/C=C/C(=O)CC(=O)/C=C/c2ccc(O)c(OC)c2)ccc1O [curcumin]
Erk (Western blot) (Erk): suppression
cell viability (MTT) [1]: dramatic decrease
mice with a detectable brain tumor (B16F10 cells; day 3 to day 19 (FIG. 11)): None
behavior (B16F10 cells; day 3 to day 19, carrier mice collapsed day 15-25): normal behavior
proliferation (breast tumor cell lines): antiproliferative effects
curcumin in mouse brain (HPLC trace) ([2]; 15 minutes after tail vein injection of 200 μl of 667 μM curcumin (FIG. 7b)): presence of curcumin
curcumin in mouse brain (HPLC trace) ([2]; 30 minutes after tail vein injection of 200 μl of 667 μM curcumin (FIG. 7c)): presence of curcumin
time by which curcumin was completely metabolized ([2]; mouse brain, after tail vein injection of 200 μl of 667 μM curcumin (FIG. 7d)): ≤ 2 h
